16 molecules from US9539315B2, “Methods, agents and peptides for inhibiting matrix metalloproteinase-2 signaling” (New York University, priority 2011, dated 2017) can be followed below.

Experiment [1] concerns MMP-2-specific CD4^+ T cells. The experiment is described as follows: Screen of overlapping MMP-2 peptides for recognition by CD4+ T cell clones. The settings on record: 20-mer peptides of MMP-2. Format: cell-based, human. From the text:
By way of background, the present inventors used a pool of sixty-six 20-amino acid long, partially overlapping peptides spanning the entire sequence of MMP-2 (SEQ ID NO: 1) to screen for the presence of MMP-2-specific CD4^+ T cells and identify the specific MMP-2 epitopes for which these clones were specific. See, for example, FIG. 6. Using this method, CD4^+ T cell clones specific for eleven distinct and novel MMP-2-derived peptides/epitopes were generated. An empirical approach to determining which, if any, of the potential MMP-2 peptides could induce MMP-2-specific CD4^+ T cells was necessitated because of the nature and complexity of antigen processing and presentation by antigen presenting cells [APCs; e.g., monocyte-derived dendritic cells (DCs)] and the additional complexities involved in T cell recognition of presented antigen, which are influenced by, for example, the presence and/or concentration of particular cytokines that are instructive for divergent T cell differentiation pathways.
Peripheral blood mononuclear cells (PBMCs) can be purified from healthy donor- (HD) or cord blood donor- (CB) derived buffy coats (New York Blood Center) by Ficoll-Paque Plus (GE Healthcare) centrifugation. CD4^+/CD25^− cells were enriched (>90%) by magnetic cell sorting (Miltenyi Biotec) and primed/stimulated for 12-15 days either with irradiated (35Gy) autologous CD4^− cells or with autologous mature DCs in IMDM (GIBCO) supplemented with 1 mM HEPES (Life Technologies), 2 mM L-glutamine (Sigma), […] (Sigma) and 5% heat inactivated pooled human serum (PHS; Valley Biomedical) in the presence of rhIL-2 (10 UI/mL) and IL7 (5 ng/mL) (R&D Systems). Antigen presenting cells (CD4^− cells or DCs) were loaded either with peptides […] or with the MMP-2 protein (10 μg/mL) for 2 and 5 h, respectively. To generate T cell clones, we originally relied on our published methodology (Godefroy et al., 2006; Godefroy et al., 2007; the entire content of each of which is incorporated herein by reference), involving enrichment of IFNγ-secreting cells upon short-term culture and peptide stimulation to generate MMP-2 responsive clones. Briefly, CD4^+ T cells were stimulated by CD4^− cells irradiated and pulsed with peptides for 12 days in the presence of rhIL-2 and rhIL-7. CD4^+ T cells were then restimulated with peptides for 3 hours before capturing IFNγ-secreting specific cells using a bispecific antibody coating T cells and capturing produced IFNγ. Positive cells were purified magnetically before being cloned. Although MMP-2-specific cells could be isolated, it was realized that IFNγ secretion was marginal compared to their secretion of IL-4 and TNFα. IFNγ-secreting cells in response to MMP-2 peptide pool were enriched by cytokine-guided magnetic cell sorting (Miltenyi Biotec) as described above and cloned the following day by limiting dilution in the presence of irradiated allogeneic PBMCs, 1 μg/mL phytohemagglutinin-L (Sigma) and 150 UI/mL rhIL-2. Tumor infiltrating lymphocytes (TILs) were provided by Pr. F. Jotereau and B. Dréno. They were obtained from tumor-invaded lymph nodes of melanoma patients (stage IIIb) and expanded ex vivo. These patients received autologous TILs and IL-2 infusions in a clinical trial (Labarriere et al., 2002). This protocol was approved by the Institutional Ethics Committee and registered with regulatory state authority in France (Nantes).
T-bet and GATA-3 expression was measured on resting T cells. Cells were fixed (4% paraformaldehyde for 10 min at RT), permeabilized with 0.1% saponin, and stained for intracellular transcription factors. Cytokine production by T cells was also assessed by intracellular staining. T cells were stimulated with 2 μM overlapping peptides. After 1 h, 10 μg/mL brefeldin A was added to the cells. […]

The subject of the next experiment is OX40L. The experiment is described as follows: OX40L expression on DCs (staining). Format: cell-based, human. The settings on record: for OX40L expression on DCs: DCs exposed for 2 days, stained for OX40L. The procedure: (§1) A) DCs were exposed to MMP-2 […] or zymosan […], a known activator of NF-κB that acts via TLR2, for the indicated time. Cytosolic and nuclear fractions were isolated and p50 contents were measured by ELISA. […] C) OX40L over-expression on DCs induced by MMP-2 is inhibited by an inhibitor of NEMO, the NEMO binding domain (NBD) peptide, but not by the corresponding negative control, a NBD mutant.
A) DCs were exposed to various TLR agonists for 2 days before cells were stained for OX40L. […] B) TLR2-transfected and engineered HEK cells were incubated with MMP-2 (5 mg/ml) or various controls. All conditions were also tested in the presence of a blocking antibody for TLR2. TNFα was used to activate NF-κB in a TLR-independent manner. Twenty hours later, NF-κB activation was measured.
Antibody to OX40L (11C3.1) was from Biolegend. Blocking antibodies to TLR-2 and TLR-6 were from Invivogen. Antibodies to GATA-3, IL-4 (8D4-8), IL-5 (JES1-39D10), IL-13 (JES10-5A2), TNFα (MAb11), IFNγ (25723.11), perforin (δG9), GranzymeB (GB11), CD40 (5C3), CD80 (L307.4), CD83 (HB15e), CD86 (IT2.2), HLA-DR (TU36), fluorescein isothiocyanate-conjugated antibodies to CD45RA (HI100) and CD45RO (UCHL1), and antibody to CD4 (RPA-T4) were purchased from BD Biosciences Pharmingen. Alexa fluor 488-conjugated antibody to IL-17 (eBio64DEC17), phycoerythrine-conjugated antibody to T-bet (4B10).
(§2) PBMCs were purified from healthy-(HD) or cord blood- (CB) donors and plated at 40×10^6 cells/10 mL/dish in complete IMDM with 5% PHS. Cells were allowed to adhere for 2 h at 37° C. Non-adherent cells were removed. The monocyte-enriched fraction was supplemented with 100 UI/mL rhGMCSF and 300 UI/mL rhIL-4 (R&D Systems) on days 0, 2 and 4. Immature DCs were harvested on day 5 and matured using poly(I:C) at 5 μg/mL/10^6 DCs (Amersham). Secretion of IL-12p70, TNFα, IL-1β, IL-6, IL-8 and IL-10 was assessed on both immature and mature DCs using the Human Inflammatory Cytokine Cytometric Bead Array (BD Pharmingen).

A further experiment deals with bone-marrow-derived DCs. The experiment is described as follows: Activation of bone-marrow-derived DCs from wild-type and TLR-deficient mice. The class given is cell-based, C57/BL6 mice. The procedure:
Bone-marrow-derived DCs from wild-type, TLR2^−/−, TLR6^−/− or MyD88^−/− C57/BL6 mice (3 mice pooled/condition) were incubated overnight with 5 μg/ml mMMP-2 or mMMP-9 as well as TLR agonists for controls. TNFα (A) and IL-6 (B) were measured by cytometric bead array analysis. Results are represented as a mean of triplicates±s.d. Two-tailed Student's t-tests were used for specific pairwise comparisons between conditions. p values≦0.05 (*) were considered statistically significant. C) Murine OX40L expression was assessed 2 days later by immunostaining.
Bone-marrow-derived DCs (BM-DCs) were generated and cultured with murine MMP-2 or various controls. […] On the other hand, TLR2^−/− and MyD88^−/− BM-DCs were not activated by MMP-2 (n=3; p<0.02 compared to wild-type mice) (FIG. 9A-C). […] Therefore, MMP-2 induces DCs to produce inflammatory cytokines and to up-regulate OX40L in a TLR2/MyD88-dependent manner.

Another experiment deals with NF-κB pathway. The experiment is described as follows: p50 nuclear translocation / NF-κB activation in DCs (ELISA of cytosolic and nuclear fractions). Format: cell-based, human. The procedure:
as §1, §2
Activation of T cell clones (10,000 cells/100 μL/well), polyclonal T cell populations (100,000 cells/100 μL/well), and DCs (50,000 cells/100 μL/well) can be determined by ELISA. IFNγ (BioSource), TNFα (BioSource), IL-4 (BioSource), IFNβ (VeriKine; PBL interferon source) and MCP-3 (DuoSet; R&D Systems) contents in supernatants were measured according to the manufacturer's instructions. p50 was measured in cytosolic and nuclear fractions (fractions separated using the nuclear separation kit from Active motif) by ELISA (Active motif).

With “AFNWSKNKKTYIFAGDKFWR (listed as Homo sapiens) [P571-590]”, the “recognition as epitope by CD4+ T cell clones” value (“recognition as epitope” below) in experiment [1] was “recognized by CD4^+ T cell clones”.
As for “ESCTSAGRSDGKMWCATTAN (listed as Homo sapiens) [P361-380]”, the “recognition as epitope” value in experiment [1] is on record as “recognized by CD4^+ T cell clones”.
In the case of “FFKGAYYLKLENQSLKSVKF (listed as Homo sapiens) [P631-650]”, in experiment [1], the “recognition as epitope” value was “recognized by CD4^+ T cell clones”.
For “GCLLSHAAAAPSPIIKFPGD (listed as Homo sapiens) [P21-40]”, the “recognition as epitope” value in experiment [1] is recorded as “recognized by CD4^+ T cell clones”.
On the same count and under the same terms, as for “GFPKLIADAWNAIPDNLDAV (listed as Homo sapiens) [P601-620]”, the entry is “recognized by CD4^+ T cell clones”; as for “GYPKPLTSLGLPPDVQRVDA (listed as Homo sapiens) [P551-570]”, “recognized by CD4^+ T cell clones”.
With MALP-2, the “OX40L expression on DCs” value in the experiment on OX40L is “induce OX40L on DCs”.
Consider “MEALMARGALTGPLRALCLL (listed as Homo sapiens) [P1-20]”, for which the “recognition as epitope” value in experiment [1] is “recognized by CD4^+ T cell clones”.
Consider NEMO binding domain (NBD) peptide, for which the “inhibition of OX40L over-expression on DCs induced by MMP-2” value in the experiment with OX40L (DCs, MMP-2-induced) is reported as “inhibited”.
For the molecule Pam3CSK4, the “OX40L over-expression on TLR-2-transfected HEK cells or DCs” value with OX40L (TLR-2/TLR-1 agonist) is “did not induce OX40L over-expression”.
As for “RIHDGEADIMINFGRWEHGD (listed as Homo sapiens) [P161-180]”, the “recognition as epitope” value in experiment [1] is “recognized by CD4^+ T cell clones”.
Same read-out and setting: as for “TGPLRALCLLGCLLSHAAAA (listed as Homo sapiens) [P11-30]”, the entry is “recognized by CD4^+ T cell clones”; as for “VAPKTDKELAVQYLNTFYGC (listed as Homo sapiens) [P41-60]”, “recognized by CD4^+ T cell clones”.
On to “VDLQGGGHSYFFKGAYYLKL (listed as Homo sapiens) [P621-640]”, for which the “recognition as epitope” value in experiment [1] is given as “recognized by CD4^+ T cell clones”.
As to “murine MMP-2: murine MMP-2 protein, active or inactive”, the “activation of bone-marrow-derived DCs” value in the experiment on bone-marrow-derived DCs (FIG. 9 summary) was “activates bone-marrow-derived DCs in a TLR2- and MyD88-dependent manner”. The “activation of TLR2−/− and MyD88−/− BM-DCs” value in the experiment with bone-marrow-derived DCs (TLR2−/− and MyD88−/− BM-DCs, n=3) is recorded as “not activated”. Besides, the “inflammatory cytokine secretion (TNFα, IL-6) by BM-DCs” value in the experiment on bone-marrow-derived DCs (wild-type and TLR6−/− BM-DCs, 5 μg/ml overnight, active or inactive) was “secreted inflammatory cytokines”. In the experiment with bone-marrow-derived DCs (wild-type and TLR6−/− BM-DCs, 2 days), the “OX40L up-regulation on BM-DCs” value is reported as “up-regulated OX40L”.

B1: heat-inactivated (HI) MMP-2: MMP-2 enzyme inactivated by heating to 56° C. for 45 min (protein)
chain: YNFFPRKPKWDKNQITYRIIGYTPDLDPETVDDAFARAFQVWSDVTPLRFSRIHDGEADIMINFGRWEHGDGYPFDGKDGLLAHAFAPGTGVGGDSHFDDDELWTLGEGQVVRVKYGNADGEYCKFPFLFNGKEYNSCTDTGRSDGFLWCSTTYNFEKDGKYGFCPHEALFTMGGNAEGQPCKFPFRFQGTSYDSCTTEGRTDGYRWCGTTEDYDRDKKYGFCPETAMSTVGGNSEGAPCVFPFTFLGNKYESCTSAGRSDGKMWCATTANYDDDRKWGFCPDQGYSLFLVAAHEFGHAMGLEHSQDPGALMAPIYTYTKNFRLSQDDIKGIQELYGASPDIDLGTGPTPTLGPVTPEICKQDIVFDGIAQIRGEIFFFKDRFIWRTVTPRDKPMGPLLVATFWPELPEKIDAVYEAPQEEKAVFFAGNEYWIYSASTLERGYPKPLTSLGLPPDVQRVDAAFNWSKNKKTYIFAGDKFWRYNEVKKKMDPGFPKLIADAWNAIPDNLDAVVDLQGGGHSYFFKGAYYLKLENQSLKSVKFGSIKSDWLGC
In the case of B1, the “OX40L expression on DCs” value in the experiment with OX40L was “induce OX40L expression”. For the same molecule, the “p50 translocation in the nucleus” value with NF-κB pathway (DCs exposed to MMP-2 (5 μm/ml) or zymosan (10 μm/ml), p50 by ELISA) was “trigger p50 translocation in the nucleus”. Further, in the experiment with NF-κB pathway (active vs heat-inactivated MMP-2), the “NF-κB activation in DCs” value was “NF-κB activation (FIGS. 2A, 2B and 3) at similar levels”.
